Consider eight molecules from PMC6009888, “Design, synthesis, and pharmacological evaluation of 2-amino-5-nitrothiazole derived semicarbazones as dual inhibitors of monoamine oxidase and cholinesterase: effect of the size of aryl binding site” (Journal of Enzyme Inhibition and Medicinal Chemistry, 2017).

Data set [1] relates to MAO-A. Further details: method as in PMID 12553895, PMID 23325700, PMID 27135466. The settings on record: Figure 1, lead semicarbazone inhibitors; ref [47–50]; cited from earlier work.
Data set [2] concerns MAO-B. Also noted: method as in PMID 12553895, PMID 23325700, PMID 27135466. Conditions: Figure 1, lead semicarbazone inhibitors; ref [47–50]; cited from earlier work.
Data set [3] concerns AChE. Also noted: method as in PMID 12553895, PMID 23325700, PMID 27135466. The settings on record: Figure 1, lead semicarbazone inhibitors; ref [47–50]; cited from earlier work.
Data set [4] deals with T1, MAO-A (Rattus norvegicus, UniProt P21396).
T1 construct: employing crude rat brain mitochondrial suspension; from tissue; host or cells: brain mitochondria of adult Wistar rats
T1 sequence (P21396 1-526): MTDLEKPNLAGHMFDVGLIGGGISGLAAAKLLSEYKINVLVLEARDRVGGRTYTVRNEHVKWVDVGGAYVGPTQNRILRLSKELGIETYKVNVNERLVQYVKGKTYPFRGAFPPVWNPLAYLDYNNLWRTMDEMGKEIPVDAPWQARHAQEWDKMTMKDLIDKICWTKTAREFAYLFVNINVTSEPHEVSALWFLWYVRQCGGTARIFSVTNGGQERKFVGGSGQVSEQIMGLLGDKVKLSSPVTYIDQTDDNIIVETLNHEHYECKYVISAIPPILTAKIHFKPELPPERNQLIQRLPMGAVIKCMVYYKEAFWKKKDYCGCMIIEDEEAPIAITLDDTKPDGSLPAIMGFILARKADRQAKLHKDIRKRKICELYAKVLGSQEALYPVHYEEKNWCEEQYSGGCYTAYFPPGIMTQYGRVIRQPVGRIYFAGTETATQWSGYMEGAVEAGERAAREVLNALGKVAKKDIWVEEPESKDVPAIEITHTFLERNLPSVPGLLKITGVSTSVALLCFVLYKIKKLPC
Nature of the data set: In vitro MAO-A inhibition assay (rat brain mitochondria, serotonin substrate). The data set is classed as biochemical. The settings on record: rat brain mitochondria, serotonin substrate, mean ± SEM, triplicate; read-out: MAO-A In vitro IC50 (µM) ± SEM. Here is the method: (§1) Rat brain mitochondria were used as a source of MAO isoforms. All operations were carried out at 4 °C[50]. Male and female adult Wistar rats weighing 200–220 g were decapitated. All brains were rapidly removed and homogenised with a Potter–Elvehjem homogeniser in cold 0.32 M sucrose and 50 mM Tris-HCl, pH 8.2 (10:1, v/w). The homogenate was centrifuged twice at 1000 g for 5 min at 4 °C. The resulting supernatant was centrifuged at 20,000 g for 20 min. The mitochondrial pellet obtained was suspended in 100 mM sodium phosphate buffer, pH 7.4 (4:1, v/w), fractionated in plastic vials to 500 µl samples and stored at −80 °C. Before use, mitochondria were diluted with 100 mM sodium phosphate buffer to give a working solution of 0.80 mg of protein per millilitre.
(§2) The experiments were carried out under all the suitable laboratory conditions. […] An aliquot was made to contain mixture of 55 µl mitochondrial suspension (0.80 mg of protein/ml), 90 µl 50 mM Tris-HCl buffer, pH 8.2 and 30 µl solubilising solution (control or inhibitor solution at five different concentrations). The reaction was initiated by adding 25 µl of serotonin (4 mM, substrate for MAO-A) and 25 µl benzylamine (0.1 M, substrate for MAO-B) for the determination of MAO-A and MAO-B activity, respectively. The mixture was incubated at 37 °C for 30 min and the reaction was stopped by the addition of 50 µl of 1 N HCl. The absorbance associated with the production of 5-hydroxyindolacetic acid was measured at 280 nm for the estimation of MAO-A while for MAO-B estimation, the absorbance was measured at 250 nm due to the formation of benzaldehyde. All the assays were performed in triplicate. Control experiments were carried out without inhibitor and blanks were run without mitochondrial suspension.
(§3) Data are expressed as mean ± standard error mean (SEM) of experiments performed in triplicate.
(§4) 0, 15, 30 and 60 min at 37 °C in Tris-HCl buffer (50 mM, pH 8.2). […] The reactions were further incubated at 37 °C for a further 15 min and the residual enzyme activities were measured and the bar graphs were constructed. All measurements were carried out in triplicate and are expressed as mean ± SEM.

The target in data set [5] is T2, MAO-B (Rattus norvegicus, UniProt P19643).
T2 construct: employing crude rat brain mitochondrial suspension; from tissue; host or cells: brain mitochondria of adult Wistar rats
T2 sequence (P19643 1-520): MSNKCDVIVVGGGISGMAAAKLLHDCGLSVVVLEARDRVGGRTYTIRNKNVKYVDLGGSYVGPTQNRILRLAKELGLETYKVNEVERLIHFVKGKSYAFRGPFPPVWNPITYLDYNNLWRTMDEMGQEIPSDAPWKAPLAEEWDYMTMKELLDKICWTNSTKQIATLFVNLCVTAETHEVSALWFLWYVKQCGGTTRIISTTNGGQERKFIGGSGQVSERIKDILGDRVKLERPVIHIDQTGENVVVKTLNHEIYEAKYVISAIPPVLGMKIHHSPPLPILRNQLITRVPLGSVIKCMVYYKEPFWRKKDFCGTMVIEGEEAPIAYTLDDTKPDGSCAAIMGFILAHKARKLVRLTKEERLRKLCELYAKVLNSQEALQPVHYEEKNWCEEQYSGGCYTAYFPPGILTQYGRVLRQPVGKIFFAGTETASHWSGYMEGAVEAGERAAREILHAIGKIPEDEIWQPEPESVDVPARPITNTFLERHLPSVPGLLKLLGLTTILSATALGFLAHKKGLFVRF
Nature of the data set: biochemical. Conditions: for SI (selectivity index for MAO-B): ratio of experimental IC50(MAO-A)/IC50(MAO-B). Here is the method: as §1, §2, §3, §4

In data set [6] the target is T3, rat brain AChE (Rattus norvegicus, UniProt P37136).
T3 construct: the resulting clear supernatants obtained were used as enzyme sources; from tissue; host or cells: rat brain cortex homogenate, 10,000 g supernatant
Nature of the data set: biochemical. The data set is classed as biochemical. Conditions: for IC50: rat brain AChE, ACTI substrate, mean ± SEM, triplicate, read-out: AChE In vitro IC50 (µM) ± SEM. Here is the method: Rat brain was used as a source of AChE enzyme. Rats were separately decapitated, the brain cortices quickly removed, weighed and homogenised in cold 10 mM Tris-HCl buffer, pH 7.2, containing 160 mM sucrose. The homogenates were centrifuged at 10,000 g for 10 min at 4 °C, and the resulting clear supernatants obtained were used as enzyme sources that were divided into aliquots and stored at −20 °C.
(§5) About 30 µl of enzyme sample (AChE) was added to 60 µl of 20 mM sodium phosphate buffer (pH 7.4) and were incubated in the presence of 30 µl of 10 mM DTNB solution with different concentrations of the test compounds. The enzyme reaction was initiated by the addition of 30 µl of 0.8 mM ACTI. The mixtures were incubated for 15 min at 25 °C. […] Control experiments were carried out without inhibitor, and blanks were run without AChE enzyme. All the assays were performed in triplicate. IC50 values were determined using the GraphPad Prism 5.0 (San Diego, CA) and the results were expressed as mean ± SEM.
(§6) 0, 15, 30 and 60 min at 25 °C in sodium phosphate buffer (20 mM, pH 7.4) and DTNB solution (10 mM). […] The reaction was further incubated at 25 °C for a further 15 min and the residual enzyme activities were measured and the bar graphs were constructed. All measurements were carried out in triplicate and are expressed as mean ± SEM.

Data set [7] deals with T4, equine serum BuChE (Equus caballus, UniProt P81908).
T4 construct: equine serum BuChE was used as enzyme; purchased Sigma-Aldrich; host or cells: equine serum
Nature of the data set: In vitro BuChE inhibition assay (Ellman's method, equine serum BuChE). In kind it is biochemical. Conditions: for IC50: equine serum BuChE, BuTI substrate, mean ± SEM, read-out: BuChE In vitro IC50 (µM) ± SEM. As for the experimental part:
as §5
The BuChE activity was assayed as per the procedure followed for AChE activity except that equine serum BuChE was used as enzyme and butyrylthiocholine iodide (BuTI) was used as substrate.
as §6
A general note: DTNB colorimetry detects thiols as they appear.

In data set [8] the test system is mice. Nature of the data set: Neurotoxicity screening (rotarod test). In kind it is in vivo. Conditions: 30 mg/kg i.p. As for the experimental part: The neurotoxicity screening was undertaken according to the method followed by the National Institute of Health, using their reported procedures[55]^,[56]. Male albino mice (CF-1 strain or Swiss, 18–25 g) were used as experimental animals. The animals were housed in metabolic cages, and allowed free access to food and water. The test compounds were suspended in 0.5% methylcellulose/water mixture or in polyethylene glycol (PEG 200).
Minimal motor impairment was measured in mice by the rotarod test. The mice were trained to stay on an accelerating rotarod that rotates at six revolutions per minute. The rod diameter was 3.2 cm. Trained animals were given i.p. injection of the selected inhibitors at a dose of 30 mg/kg. Neurotoxicity was indicated by the inability of the animal to maintain equilibrium on the rod for at least 1 min in each of the three trials.
For orientation: In the rotarod test animals must keep their balance on a rotating rod.

Data set [9] can be described thus: physchem. The settings on record: octanol/water.
For data set [10], the target named is T1, MAO-A. Conditions: reference inhibitors; ref [50]; read-out: MAO-A In vitro IC50 (µM) ± SEM; cited from earlier work.
Data set [11] addresses T2, MAO-B. Also noted: method as in PMID 27135466. Conditions: reference inhibitors; ref [50]; read-out: MAO-B In vitro IC50 (µM) ± SEM; cited from earlier work.

Several values for one entry are separate records, joined by “and”; a condition that tells them apart may be missing. Identical values can stand only once. Like-named read-outs stand apart in the source and are kept apart here.

T4 sequence (P81908 whole entry): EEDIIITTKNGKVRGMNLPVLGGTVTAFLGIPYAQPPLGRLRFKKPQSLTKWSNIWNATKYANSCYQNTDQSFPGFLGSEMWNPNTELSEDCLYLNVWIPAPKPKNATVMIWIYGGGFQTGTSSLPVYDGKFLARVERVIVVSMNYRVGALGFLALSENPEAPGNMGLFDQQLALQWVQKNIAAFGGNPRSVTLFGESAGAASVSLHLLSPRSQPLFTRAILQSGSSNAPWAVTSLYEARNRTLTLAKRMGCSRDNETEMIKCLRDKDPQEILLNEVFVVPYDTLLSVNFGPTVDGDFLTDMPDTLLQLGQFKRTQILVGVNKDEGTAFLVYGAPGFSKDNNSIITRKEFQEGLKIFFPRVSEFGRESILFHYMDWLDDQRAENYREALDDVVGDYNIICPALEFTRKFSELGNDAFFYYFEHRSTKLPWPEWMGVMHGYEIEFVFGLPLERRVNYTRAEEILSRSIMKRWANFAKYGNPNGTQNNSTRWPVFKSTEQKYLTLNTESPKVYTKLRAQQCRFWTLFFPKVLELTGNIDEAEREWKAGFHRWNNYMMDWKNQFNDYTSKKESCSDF
T3 sequence (P37136 32-614): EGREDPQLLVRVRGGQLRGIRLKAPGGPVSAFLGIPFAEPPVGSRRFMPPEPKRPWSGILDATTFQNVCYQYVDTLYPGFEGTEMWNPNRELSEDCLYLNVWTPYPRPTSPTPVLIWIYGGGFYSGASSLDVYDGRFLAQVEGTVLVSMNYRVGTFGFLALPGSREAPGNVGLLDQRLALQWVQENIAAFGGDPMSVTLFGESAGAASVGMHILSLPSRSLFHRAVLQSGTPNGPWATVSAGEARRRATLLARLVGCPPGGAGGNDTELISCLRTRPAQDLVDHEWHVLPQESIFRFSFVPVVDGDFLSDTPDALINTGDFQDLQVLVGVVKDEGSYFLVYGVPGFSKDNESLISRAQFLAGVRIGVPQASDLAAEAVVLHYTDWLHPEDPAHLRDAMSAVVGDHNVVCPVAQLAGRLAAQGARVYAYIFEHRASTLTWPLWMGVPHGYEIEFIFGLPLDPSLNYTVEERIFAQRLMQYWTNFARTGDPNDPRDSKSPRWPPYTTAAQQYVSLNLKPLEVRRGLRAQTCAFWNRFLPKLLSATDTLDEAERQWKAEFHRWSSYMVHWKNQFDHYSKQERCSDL

In the case of `O=C(N/N=C(\c1ccccc1)c1ccc(Cl)cc1)Nc1nc2ccc([N+](=O)[O-])cc2s1` [(i)], the IC50 (as a rule, the concentration that gives 50% inhibition) was 0.184 ± 0.001 µM in data set [1] and 0.004 ± 0.001 µM in data set [2].

With `O=C(N/N=C/c1c(Cl)cccc1Cl)Nc1ccc2c(c1)OCO2` [(ii)], the IC50 in data set [1] was 4.52 ± 0.032 µM; in data set [2], 0.059 ± 0.002 µM; in [3], 0.0087 ± 0.0002 µM.

In the case of `O=C(NN=C(c1ccccc1)c1ccccc1)Nc1ccncc1` [(iii)], the IC50 in data set [3] is 0.052 ± 0.01 µM.

On to `CNC(=O)N(CCO)/N=C/c1ccc(OCc2ccccc2)cc1` [(iv)], for which the IC50 in data set [1] was 90 µM; in data set [2] it was 2.2 µM.

As for `O=C(N/N=C1/C(=O)Nc2ccccc21)Nc1nc2ccc([N+](=O)[O-])cc2s1` [(v)], the IC50 in [1] is 5.98 ± 0.534 µM; in data set [2], 2.15 ± 0.095 µM.

Consider `O=C(NN=C(c1ccccc1)c1ccccc1)Nc1ncc([N+](=O)[O-])s1` [Compound 16, 1-(Diphenylmethylene)-4-(5-nitrothiazol-2-yl)semicarbazide], for which the IC50 was < 100 µM and 89.3 µM in [4]; 28.3 ± 0.45 µM in [5]; 4.86 ± 0.81 µM in data set [6]; 1.76 ± 0.035 µM in data set [7]. Besides, the “SI (selectivity index for MAO-B)” value in [5] is reported as 3.15. In addition, in data set [6] (diaryl analogues), the “AChE: fold less active relative to compound 19” value is given as ~3.35 fold. Further, in data set [7] (diaryl analogues), the “BuChE: fold less active relative to compound 17” value was ~73 fold. Moreover, the “Neurotoxicity (animals that exhibit toxicity / animals tested)” value in data set [8] (0.5 h), in data set [8] (1 h), in [8] (2 h) and in [8] (4 h) was 0/4 in each case. The logP (usually a log measure of how a compound divides between an organic and an aqueous phase) in [9] turned out to be 3.4.

Consider `O=C(NN=C(c1ccccc1)c1ccc(Cl)cc1)Nc1ncc([N+](=O)[O-])s1` [Compound 17, 1-((4-Chlorophenyl)(phenyl)methylene)-4-(5-nitrothiazol-2-yl)semicarbazide], for which the IC50 in data set [4] came out at 4872 ± 5.81 µM; in [5], 28.52 ± 0.079 µM; in [6] it was 11.5 ± 0.35 µM; in data set [7], 0.024 ± 0.002 µM. Also, the “SI (selectivity index for MAO-B)” value in [5] was 170.83. Moreover, in [7] (Lineweaver–Burk plots, BuTI), the “Mode of BuChE inhibition” value was “mixed-type”. Also, the “Reversibility of BuChE inhibition” value in data set [7] (time-dependent inhibition, pre-incubation 0, 15, 30, 60 min) is given as “reversible”. In data set [9], the logP was found to be 3.6.

In the case of `COc1ccc2c(c1)[nH]c1c(C)nccc12` [HRM, Harmine], the IC50 in data set [10] is 3 µM; in data set [11], 7000 µM.
